In PubChem BioAssay AID1918941 (Molecular Pharmacology Branch, DTP, NCI, 2023):

Test system: SW 1271 complex spheroids, viability
Test: Anticancer human tumor SW 1271 cell line growth inhibition [LSD1];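 note: spheroids exposed to agents for 7 days before luminescence read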;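 for viability, T/C: 100% = DMSO vehicle control viability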
Details: for IC50: curve of first compound; for viability, T/C: stronger effect = lower value
How it was run: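 Complex spheroids of tumor cells with HUVEC and human MSCs, exposed to iadademstat combined with other agents. Each agent tested in half-log steps from near clinical Cmax (else 10 microM top), DMSO ≤0.25%.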

[1] = second compound 0.1 µM, first compound 0.00949 µM
[2] = second compound 0.1 µM, first compound 0.03 µM
[3] = second compound 0.1 µM, first compound 0.0949 µM
[4] = second compound 0.1 µM, first compound 0.3 µM
[5] = second compound 0.1 µM, first compound 0.949 µM
[6] = second compound 0.1 µM, first compound 3 µM
[7] = second compound 0.316 µM, first compound 0.00949 µM
[8] = second compound 0.316 µM, first compound 0.03 µM
[9] = second compound 0.316 µM, first compound 0.0949 µM
[10] = second compound 0.316 µM, first compound 0.3 µM
[11] = second compound 0.316 µM, first compound 0.949 µM
[12] = second compound 0.316 µM, first compound 3 µM
[13] = second compound 1 µM, first compound 0.00949 µM
[14] = second compound 1 µM, first compound 0.03 µM
[15] = second compound 1 µM, first compound 0.0949 µM
[16] = second compound 1 µM, first compound 0.3 µM
[17] = second compound 1 µM, first compound 0.949 µM
[18] = second compound 1 µM, first compound 3 µM
[19] = second compound 3.16 µM, first compound 0.00949 µM
[20] = second compound 3.16 µM, first compound 0.03 µM
[21] = second compound 3.16 µM, first compound 0.0949 µM
[22] = second compound 3.16 µM, first compound 0.3 µM
[23] = second compound 3.16 µM, first compound 0.949 µM
[24] = second compound 3.16 µM, first compound 3 µM
[25] = second compound 10 µM, first compound 0.00949 µM
[26] = second compound 10 µM, first compound 0.03 µM
[27] = second compound 10 µM, first compound 0.0949 µM
[28] = second compound 10 µM, first compound 0.3 µM
[29] = second compound 10 µM, first compound 0.949 µM
[30] = second compound 10 µM, first compound 3 µM

SMILES	IC50 (second compound 0.1 µM) [nM]	IC50 (second compound 0.316 µM) [nM]	IC50 (second compound 1 µM) [nM]	IC50 (second compound 3.16 µM) [nM]	IC50 (second compound 10 µM) [nM]	viability, T/C [1] [%]	viability, T/C [2] [%]	viability, T/C [3] [%]	viability, T/C [4] [%]	viability, T/C [5] [%]	viability, T/C [6] [%]	viability, T/C [7] [%]	viability, T/C [8] [%]	viability, T/C [9] [%]	viability, T/C [10] [%]	viability, T/C [11] [%]	viability, T/C [12] [%]	viability, T/C [13] [%]	viability, T/C [14] [%]	viability, T/C [15] [%]	further results
NS(=O)(=O)OCC1CC(n2ccc3c(NC4CCc5ccccc54)ncnc32)CC1O (stereo not given) + NC1CC1c1ccc(-c2cccc(O)c2)cc1	> 3000	> 3000	> 3000	> 3000	> 3000	151	123	103	86	85.5	88.5	166	112	94.5	82.3	82.1	79.9	148	110	95.9	viability, T/C [16]: 75.8%; viability, T/C [17]: 85.9%; viability, T/C [18]: 79%; viability, T/C [19]: 144%; viability, T/C [20]: 101%; viability, T/C [21]: 99.9%; viability, T/C [22]: 85.5%; viability, T/C [23]: 75.6%; viability, T/C [24]: 83.9%; viability, T/C [25]: 141%; viability, T/C [26]: 116%; viability, T/C [27]: 115%; viability, T/C [28]: 101%; viability, T/C [29]: 87.3%; viability, T/C [30]: 91.1%
Nc1ccccc1NC(=O)c1ccc(CNC(=O)OCc2cccnc2)cc1 + NC1CC1c1ccc(-c2cccc(O)c2)cc1	106	120	62.6	76.2	38.1	85.6	65.7	56.7	29.6	8.17	3.78	89.2	75.3	57.3	27.7	6.71	4.39	94.3	59.9	46.6	viability, T/C [16]: 26.6%; viability, T/C [17]: 7.28%; viability, T/C [18]: 5.61%; viability, T/C [19]: 81.3%; viability, T/C [20]: 69.7%; viability, T/C [21]: 40.5%; viability, T/C [22]: 32.4%; viability, T/C [23]: 10%; viability, T/C [24]: 4.69%; viability, T/C [25]: 66.7%; viability, T/C [26]: 51.9%; viability, T/C [27]: 38.6%; viability, T/C [28]: 29.4%; viability, T/C [29]: 11.7%; viability, T/C [30]: 6.45%
O=C(C=Cc1cccc(S(=O)(=O)Nc2ccccc2)c1)NO + NC1CC1c1ccc(-c2cccc(O)c2)cc1	98.2	62.9	55.3	60	68.1	74.5	69	51.8	17.9	7.5	0.27	70.3	61.8	44	17.4	6.95	0.16	75.7	60.1	41.8	viability, T/C [16]: 14.3%; viability, T/C [17]: 6.33%; viability, T/C [18]: 0.7%; viability, T/C [19]: 72.7%; viability, T/C [20]: 58.4%; viability, T/C [21]: 45.6%; viability, T/C [22]: 14.1%; viability, T/C [23]: 6.89%; viability, T/C [24]: 0.2%; viability, T/C [25]: 67.1%; viability, T/C [26]: 59.9%; viability, T/C [27]: 46.5%; viability, T/C [28]: 17.6%; viability, T/C [29]: 5.74%; viability, T/C [30]: 0.36%
